Measurements: article PMC9090415, “Discovery of small molecule inhibitors of Plasmodium falciparum apicoplast DNA polymerase” (Journal of Enzyme Inhibition and Medicinal Chemistry, 2022)

Target: P. falciparum apicoplast DNA polymerase (Pf-apPOL) (Plasmodium falciparum, UniProt Q8ILY1)
Experiment: Fluorescence-based high-throughput DNA polymerase assay (molecular beacon), primary screen and dose-response
Format: biochemical
Conditions: for DNA Pol: 90 min, 10 µM
Protocol: The HT assay employs a molecular beacon, a stem-loop DNA template with a Cy3 dye and the Black Hole Quencher on the 3′ and 5′ ends of the DNA, respectively. Pf-apPOL concentration is based on a calculated absorptivity of ε280 = 56750 M^−1 cm^−1. Reactions were carried out at 25 °C, using Corning 3575 […] (well-volume, 20 µL). Assays testing for compound inhibition composed of reaction buffer (pH 7.9 in 50 mM potassium acetate, 20 mM Tris-acetate and 10 mM magnesium acetate), Pf-apPOL (20 nM), DNA substrate (20 nM), dNTPs (6 µM), and compound (10 µM in DMSO). The DNA and nucleotide substrates (dNTPs) were at concentrations of 20 nM and 6 µM, respectively, in the assay. Pf-apPOL was incubated in the reaction buffer with dNTPs and the compound of interest (10 µM, in the assay) at 25 °C for 10 min. The DNA substrate was then added and the reaction was allowed to proceed for 90 min at 25 °C.
Each assay plate contained 16 negative controls (no Pf-apPOL, DMSO present) and 16 positive controls (Pf-apPOL present, no DMSO). The fluorescence of each well was determined using a BioTek Synergy Neo fluorescence plate reader using excitation and emission wavelengths of 555 and 570 nm, respectively.
In the above, Min is the average of fluorescence emission of the negative controls (substrate only), Max the average fluorescence emission from the positive controls (enzyme + substrate), and Test the emission from the assays in the presence of compounds (enzyme + compound + substrates). […] […] The IC50 of each compound was determined using Equation (2): (2) IC50= Vmax/(1+ (I/IC50)^n)
In the above, n measures cooperativity, with n > 1 indicating synergistic binding of more than a single molecule of the compound.
To identify apPOL inhibitors we utilised our previously developed high-throughput DNA polymerase assay. The HT assay is based on a molecular beacon DNA template that forms a stem-loop with a Cy3 dye and the Black Hole Quencher on the 3′ and 5′ ends of the DNA, respectively. DNA polymerase activity extends an annealed primer through the stem region, displacing the fluorophore from the quencher, thereby increasing its fluorescence (Figure 1(A)). The assay accurately recapitulates the kinetic behaviour of apPOL, as measured through more conventional low-throughput gel-based assays. The Z′ factor for the assay described here was 0.9 across all plates (data not shown).
Figure 1. High-throughput screening. (A) The fluorescent-based DNA polymerase assay used to screen the compound libraries. The DNA template strand is a hairpin loop with a primer annealed to the loop. The 3’ end of the primer is 11 bases away from the 6 bp duplex. Strand displacement activity of the DNA polymerase separates the Cy3 dye from the Black hole quencher leading to an increase in fluorescent signal. (B) The high-throughput assay workflow. The DNA polymerase is incubated with […] compound for 10 min prior to addition of the hairpin substrate. The reaction is quenched at 3 different time points and the fluorescent signal is measured and % inhibition is determined using the provided equation.

[1] = 'DNA Pol' of the 186 hits list (screen value)
[2] = primary screen value, "DNA Pol"

P. falciparum apicoplast DNA polymerase (Pf-apPOL), sequence (Q8ILY1 entry or part of it): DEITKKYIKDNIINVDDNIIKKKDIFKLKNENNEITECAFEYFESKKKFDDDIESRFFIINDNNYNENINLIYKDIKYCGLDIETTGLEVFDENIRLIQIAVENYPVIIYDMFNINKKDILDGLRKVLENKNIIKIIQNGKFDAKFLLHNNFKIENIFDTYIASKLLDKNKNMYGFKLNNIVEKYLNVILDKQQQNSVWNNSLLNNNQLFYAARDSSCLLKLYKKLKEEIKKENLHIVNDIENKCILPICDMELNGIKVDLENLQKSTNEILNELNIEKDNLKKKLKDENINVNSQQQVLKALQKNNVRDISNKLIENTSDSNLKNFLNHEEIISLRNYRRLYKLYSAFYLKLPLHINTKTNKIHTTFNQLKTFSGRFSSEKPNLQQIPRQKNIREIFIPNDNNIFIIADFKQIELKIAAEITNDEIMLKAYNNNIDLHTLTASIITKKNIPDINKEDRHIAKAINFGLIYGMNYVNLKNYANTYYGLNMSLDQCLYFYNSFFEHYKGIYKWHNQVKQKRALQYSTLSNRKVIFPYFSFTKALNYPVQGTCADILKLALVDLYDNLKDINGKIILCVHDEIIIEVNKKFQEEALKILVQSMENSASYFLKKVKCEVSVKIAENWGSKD

SMILES: O=C(O)c1ccc(COc2cc([N+](=O)[O-])cc3cccnc23)cc1 [KU0058403]
- DNA Pol [1]: 59
- % inhibition Apo pol 10' (DRC-1, conc 2.5): 14.3649%
- % inhibition Apo pol 10' (DRC-1, conc 5): 27.7405%
- % inhibition Apo pol 10' (DRC-1, conc 10): 42.2641%
- % inhibition Apo pol 10' (DRC-1, conc 20): 75.4082%
- % inhibition Apo pol 10' (DRC-1, conc 40): 92.5507%
- % inhibition Apo pol 10' (DRC-1, conc 80): 97.3906%
- % inhibition Apol 90' (DRC-1, conc 2.5): 7.929%
- % inhibition Apol 90' (DRC-1, conc 5): 14.8475%
- % inhibition Apol 90' (DRC-1, conc 10): 27.7051%
- % inhibition Apol 90' (DRC-1, conc 20): 56.1594%
- % inhibition Apol 90' (DRC-1, conc 40): 83.537%
- % inhibition Apol 90' (DRC-1, conc 80): 95.378%
- % inhibition apPOL 180' (DRC-1, conc 2.5): 6.111%
- % inhibition apPOL 180' (DRC-1, conc 5): 9.076%
- % inhibition apPOL 180' (DRC-1, conc 10): 18.5156%
- % inhibition apPOL 180' (DRC-1, conc 20): 39.8383%
- % inhibition apPOL 180' (DRC-1, conc 40): 74.9259%
- % inhibition apPOL 180' (DRC-1, conc 80): 94.2886%
- % inhibition Apo pol 5' (DRC-2, conc 2.5): 17%
- % inhibition Apo pol 5' (DRC-2, conc 5): 21%
- % inhibition Apo pol 5' (DRC-2, conc 10): 31%
- % inhibition Apo pol 5' (DRC-2, conc 20): 43%
- % inhibition Apo pol 5' (DRC-2, conc 40): 55%
- % inhibition Apo pol 5' (DRC-2, conc 80): 60%
- % inhibition Apol 40' (DRC-2, conc 2.5): 10%
- % inhibition Apol 40' (DRC-2, conc 5): 14%
- % inhibition Apol 40' (DRC-2, conc 10): 23%
- % inhibition Apol 40' (DRC-2, conc 20): 39%
- % inhibition Apol 40' (DRC-2, conc 40): 59%
- % inhibition Apol 40' (DRC-2, conc 80): 74%
- % inhibition ApPOL 90' (DRC-2, conc 2.5): 7%
- % inhibition ApPOL 90' (DRC-2, conc 5): 12%
- % inhibition ApPOL 90' (DRC-2, conc 10): 19%
- % inhibition ApPOL 90' (DRC-2, conc 20): 35%
- % inhibition ApPOL 90' (DRC-2, conc 40): 57%
- % inhibition ApPOL 90' (DRC-2, conc 80): 76%
- % inhibition ApPOL 90' (DRC-2, concentration 80): 76%
- % inhibition apPOL 180' (DRC-2, conc 2.5): 1.43%
- % inhibition apPOL 180' (DRC-2, conc 5): 2.25%
- % inhibition apPOL 180' (DRC-2, conc 10): 8.43%
- % inhibition apPOL 180' (DRC-2, conc 20): 22%
- % inhibition apPOL 180' (DRC-2, conc 40): 48%
- % inhibition apPOL 180' (DRC-2, conc 80): 76%
- % inhibition apPOL 180' (DRC-2, concentration 80): 76%
- DNA Pol [2]: 59

SMILES: O=c1nc(/C=C/c2ccc(Br)cc2)oc2ccccc12 [KU0052629]
- DNA Pol [1]: 39
- % inhibition Apo pol 10' (DRC-1, conc 2.5): -0.8795%
- % inhibition Apo pol 10' (DRC-1, conc 5): 1.877%
- % inhibition Apo pol 10' (DRC-1, conc 10): 5.765%
- % inhibition Apo pol 10' (DRC-1, conc 20): 17.2321%
- % inhibition Apo pol 10' (DRC-1, conc 40): 88.0772%
- % inhibition Apo pol 10' (DRC-1, conc 80): 96.3156%
- % inhibition Apol 90' (DRC-1, conc 2.5): -3.77%
- % inhibition Apol 90' (DRC-1, conc 5): -1.711%
- % inhibition Apol 90' (DRC-1, conc 10): 2.797%
- % inhibition Apol 90' (DRC-1, conc 20): 11.2319%
- % inhibition Apol 90' (DRC-1, conc 40): 85.0713%
- % inhibition Apol 90' (DRC-1, conc 80): 92.172%
- % inhibition apPOL 180' (DRC-1, conc 2.5): -7.96%
- % inhibition apPOL 180' (DRC-1, conc 5): -5.094%
- % inhibition apPOL 180' (DRC-1, conc 10): -1.853%
- % inhibition apPOL 180' (DRC-1, conc 20): 4.7876%
- % inhibition apPOL 180' (DRC-1, conc 40): 80.0065%
- % inhibition apPOL 180' (DRC-1, conc 80): 94.1472%
- % inhibition Apo pol 5' (DRC-2, conc 2.5): 6%
- % inhibition Apo pol 5' (DRC-2, conc 5): -1.24%
- % inhibition Apo pol 5' (DRC-2, conc 10): 6%
- % inhibition Apo pol 5' (DRC-2, conc 20): 35%
- % inhibition Apo pol 5' (DRC-2, conc 40): 60%
- % inhibition Apo pol 5' (DRC-2, conc 80): 61%
- % inhibition Apo pol 5' (DRC-2, concentration 2.5): 6%
- % inhibition Apo pol 5' (DRC-2, concentration 10): 6%
- % inhibition Apol 40' (DRC-2, conc 2.5): 8%
- % inhibition Apol 40' (DRC-2, conc 5): -2.13%
- % inhibition Apol 40' (DRC-2, conc 10): 5.6%
- % inhibition Apol 40' (DRC-2, conc 20): 48%
- % inhibition Apol 40' (DRC-2, conc 40): 77%
- % inhibition Apol 40' (DRC-2, conc 80): 75%
- % inhibition Apol 40' (DRC-2, concentration 2.5): 8%
- % inhibition ApPOL 90' (DRC-2, conc 2.5): 8%
- % inhibition ApPOL 90' (DRC-2, conc 5): -2%
- % inhibition ApPOL 90' (DRC-2, conc 10): 5%
- % inhibition ApPOL 90' (DRC-2, conc 20): 45%
- % inhibition ApPOL 90' (DRC-2, conc 40): 79%
- % inhibition ApPOL 90' (DRC-2, conc 80): 79%
- % inhibition ApPOL 90' (DRC-2, concentration 2.5): 8%
- % inhibition ApPOL 90' (DRC-2, concentration 40): 79%
- % inhibition ApPOL 90' (DRC-2, concentration 80): 79%
- % inhibition apPOL 180' (DRC-2, conc 2.5): 6%
- % inhibition apPOL 180' (DRC-2, conc 5): -4%
- % inhibition apPOL 180' (DRC-2, conc 10): 2.72%
- % inhibition apPOL 180' (DRC-2, conc 20): 37%
- % inhibition apPOL 180' (DRC-2, conc 40): 79%
- % inhibition apPOL 180' (DRC-2, conc 80): 79%
- % inhibition apPOL 180' (DRC-2, concentration 2.5): 6%
- % inhibition apPOL 180' (DRC-2, concentration 40): 79%
- % inhibition apPOL 180' (DRC-2, concentration 80): 79%
- DNA Pol [2]: 39

SMILES: Cc1cc(C)c(O)c(/N=C/c2cc([N+](=O)[O-])cc(Br)c2O)c1 [KU0046272]
- % inhibition Apo pol 10' (DRC-1, concentration 2.5): 3.169%
- % inhibition Apo pol 10' (DRC-1, concentration 5): -1.228%
- % inhibition Apo pol 10' (DRC-1, concentration 10): 12.3955%
- % inhibition Apo pol 10' (DRC-1, concentration 20): 36.9804%
- % inhibition Apo pol 10' (DRC-1, concentration 40): 60.3951%
- % inhibition Apo pol 10' (DRC-1, concentration 80): 90.16%
- % inhibition Apol 90' (DRC-1, concentration 2.5): -6.623%
- % inhibition Apol 90' (DRC-1, concentration 5): -11.6285%
- % inhibition Apol 90' (DRC-1, concentration 10): 2.689%
- % inhibition Apol 90' (DRC-1, concentration 20): 23.1885%
- % inhibition Apol 90' (DRC-1, concentration 40): 44.716%
- % inhibition Apol 90' (DRC-1, concentration 80): 85.7846%
- % inhibition apPOL 180' (DRC-1, concentration 2.5): -11.4225%
- % inhibition apPOL 180' (DRC-1, concentration 5): -16.1751%
- % inhibition apPOL 180' (DRC-1, concentration 10): -3.511%
- % inhibition apPOL 180' (DRC-1, concentration 20): 14.6468%
- % inhibition apPOL 180' (DRC-1, concentration 40): 35.3485%
- % inhibition apPOL 180' (DRC-1, concentration 80): 85.8895%
- % inhibition Apo pol 5' (DRC-2, concentration 2.5): 7%
- % inhibition Apo pol 5' (DRC-2, concentration 5): 6%
- % inhibition Apo pol 5' (DRC-2, concentration 10): 4.64%
- % inhibition Apo pol 5' (DRC-2, concentration 20): 17%
- % inhibition Apo pol 5' (DRC-2, concentration 40): 41%
- % inhibition Apo pol 5' (DRC-2, concentration 80): 54%
- % inhibition Apol 40' (DRC-2, concentration 2.5): 2%
- % inhibition Apol 40' (DRC-2, concentration 5): 4.73%
- % inhibition Apol 40' (DRC-2, concentration 10): 4%
- % inhibition Apol 40' (DRC-2, concentration 20): 19%
- % inhibition Apol 40' (DRC-2, concentration 40): 47%
- % inhibition Apol 40' (DRC-2, concentration 80): 72%
- % inhibition ApPOL 90' (DRC-2, concentration 2.5): 1%
- % inhibition ApPOL 90' (DRC-2, concentration 5): 3.45%
- % inhibition ApPOL 90' (DRC-2, concentration 10): 2.43%
- % inhibition ApPOL 90' (DRC-2, concentration 20): 20%
- % inhibition ApPOL 90' (DRC-2, concentration 40): 47%
- % inhibition ApPOL 90' (DRC-2, concentration 80): 75%
- % inhibition apPOL 180' (DRC-2, concentration 2.5): -0.688%
- % inhibition apPOL 180' (DRC-2, concentration 5): 1.3%
- % inhibition apPOL 180' (DRC-2, concentration 10): 1.29%
- % inhibition apPOL 180' (DRC-2, concentration 20): 17%
- % inhibition apPOL 180' (DRC-2, concentration 40): 40%
- % inhibition apPOL 180' (DRC-2, concentration 80): 75%
- % inhibition Apo pol 5' (conc. 20, DRC-2): 17%
- % inhibition apPOL 180' (conc. 20, DRC-2): 17%
- % inhibition Apol 40' (conc. 40, DRC-2): 47%
- % inhibition ApPOL 90' (conc. 40, DRC-2): 47%
- % inhibition ApPOL 90' (conc. 80, DRC-2): 75%
- % inhibition apPOL 180' (conc. 80, DRC-2): 75%
- DNA Pol (primary screen value by plate and well): 45
- DNA Pol (primary screen value of the 186 hits, unit not given): 45

SMILES: Oc1ccc(N=Nc2ccccc2)c(O)c1 [Molecule 80]
- IC50 (supplemental file 2, sheet IC50 nontoxic compounds, Pf-apPOL): 37.5 µM
